Test results reported in the NIST ThermoML archive (doi:10.1016/j.fluid.2013.01.025).

What was measured:
[1] = 101 kPa, Liquid, Vibrating tube method
[2] = xn = mol fraction of the nth substance listed; settings: 101 kPa, Liquid, Vibrating tube method

OCCO [1,2-ethanediol]
[1]
Settings | mass density [kg/m3]
278.15 K | 1123.8
323.15 K | 1092.14

OCCO [1,2-ethanediol] + O
mass density [kg/m3], [2]
Settings | 278.15 K | 288.15 K | 298.15 K | 308.15 K | 323.15 K
x1 = 0.02277 | 1010.24 | 1008.82 | 1006.33 | 1002.99 | 996.6
x1 = 0.05488 | 1023.85 | 1021.56 | 1018.45 | 1014.58 | 1007.61
x1 = 0.07829 | 1032.87 | 1030.01 | 1026.44 | 1022.21 | 1014.78
x1 = 0.1012 | 1040.89 | 1037.48 | 1033.52 | 1028.99 | 1021.16
x1 = 0.158 | 1057.7 | 1053.26 | 1048.42 | 1043.17 | 1034.52
x1 = 0.2 | 1067.88 | 1062.86 | 1057.55 | 1051.92 | 1042.75
x1 = 0.299 | 1085.43 | 1079.59 | 1073.54 | 1067.25 | 1057.39
x1 = 0.3917 | 1096.56 | 1090.28 | 1083.85 | 1077.24 | 1067.02
x1 = 0.5006 | 1105.57 | 1098.99 | 1092.32 | 1085.51 | 1075.02
x1 = 0.6041 | 1111.55 | 1104.81 | 1098 | 1091.09 | 1080.49
x1 = 0.7063 | 1115.93 | 1109.12 | 1102.24 | 1095.28 | 1084.61
x1 = 0.8049 | 1119.14 | 1112.26 | 1105.34 | 1098.34 | 1087.65
x1 = 0.9034 | 1121.73 | 1114.79 | 1107.84 | 1100.82 | 1090.14
x1 = 0.9535 | 1122.81 | 1115.88 | 1108.92 | 1101.89 | 1091.19
x1 = 0.9826 | 1123.42 | 1116.49 | – | 1102.48 | 1091.78
x1 = 1 | 1123.8 | – | – | – | 1092.14

O [water] + OCCO
[2], x2 = 0
Settings | mass density [kg/m3]
278.15 K | 999.96
323.15 K | 988.03
